Measured values: patent publication US20080027001A1, “NOGO RECEPTOR FUNCTIONAL MOTIFS, PEPTIDE MIMETICS, AND MUTATED FUNCTIONAL MOTIFS RELATED THERETO, AND METHODS OF USING THE SAME” (priority 2006, published 2008)
Residue numbers refer to the chain shown, from its start. Values joined by “and” are separate entries in the source; they are usually repeats but may differ in a detail not shown here. Equal entries are not always repeated.

Experiments:
[1] = tested on: NgR1 expressed in CHO cells (MAG-AP binding); assay: Neuraminidase treatment, MAG-AP binding to NgR1-expressing CHO cells; conditions: MAG-AP 2.5-20 μg/ml; CHO cells treated with neuraminidase
Procedure: (§1) Chinese hamster ovary (CHO) parental cells and NgR1 stable cells were seeded at 30,000 cells per well in 96-well plates the night before the assay. Various concentrations of Vibrio cholera neuraminidase (Roche Applied Science, Indianapolis, Ind.) in growth medium (Dulbecco's modified Eagle medium containing 10% fetal bovine serum) were incubated with cells for an hour at 37° C. Medium was replaced with affinity-purified MAG-AP or Nogo66-AP in HBSS supplemented with 1% fetal bovine serum and […] of HEPES and incubated at room temperature for 90 min. Cells were then washed four times with supplemented HBSS. AltoPhos (0.6 mg/ml) (Promega, Madison Wis.) was added for indication of bound ligands. After a 30 minute incubation at RT, the plates were read at […] wavelength of 400 nm/505 nm with FLEXSTATION® 11384.
(§2) In neurons, soluble MAG binds to the NgR1 and NgR2 in a sialic acid-dependent manner (Venkatesh et al. (2005) supra). In the present study, the neuraminidase sensitivity of MAG binding to the NgR1 expressed in CHO cells was confirmed.

[2] = tested on: NgR1 expressed in CHO cells (Nogo66-AP binding); assay: Neuraminidase treatment, Nogo66-AP binding to NgR1-expressing CHO cells; conditions: highest concentration of neuraminidase; Nogo66-AP 10 μg/ml
Procedure: as §1, §2

[3] = molecular target: T1, NgR1(310)-fc (Homo sapiens, UniProt Q9BZR6); assay: Analytical ultracentrifugation (sedimentation velocity), wild type receptor; assay type: binding; conditions: ganglioside 0 to 48 μM (FIG. 3A-C)
T1 construct: made in house; host or cells: mammalian expression vector (pSMED2)
T1 sequence (Q9BZR6 with tags, fused parts or gaps limits assumed): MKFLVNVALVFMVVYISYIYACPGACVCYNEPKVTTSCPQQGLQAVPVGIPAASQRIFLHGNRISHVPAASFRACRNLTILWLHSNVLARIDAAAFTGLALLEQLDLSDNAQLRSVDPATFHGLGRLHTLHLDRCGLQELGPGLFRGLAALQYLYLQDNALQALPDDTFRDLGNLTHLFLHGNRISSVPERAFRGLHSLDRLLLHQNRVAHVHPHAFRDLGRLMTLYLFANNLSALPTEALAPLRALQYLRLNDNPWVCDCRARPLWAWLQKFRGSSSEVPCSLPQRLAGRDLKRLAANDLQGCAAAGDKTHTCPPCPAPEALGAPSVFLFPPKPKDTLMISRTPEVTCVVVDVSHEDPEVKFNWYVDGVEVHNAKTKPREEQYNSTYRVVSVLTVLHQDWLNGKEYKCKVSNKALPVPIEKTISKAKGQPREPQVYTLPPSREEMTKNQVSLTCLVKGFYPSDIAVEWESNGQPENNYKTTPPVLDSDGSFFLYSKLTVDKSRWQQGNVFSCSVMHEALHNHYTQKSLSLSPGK
Text: (§3) Human Nogo Receptor 1 (NgR1)(310)-fc point mutants (FRG-1 (R151E); FRG-2 (R279E); FRG-3 (R199E), and FRG-4 (R151E/R279E/R199E)) were constructed by Genewiz (North Brunswick, N.J.) using their site-directed mutagenesis technology. The template used to construct all the described mutants was wild type human NgR1(310)-fc (SEQ ID NO:59), which was generated by fusing a nucleotide sequence corresponding to the first 310 amino acid of Human Nogo Receptor 1 to a human Fc fragment in a mammalian expression vector (the sequence of wild type NgR1(310)-fc and the expression vector is set forth in SEQ ID NO:60 and a schematic of the expression vector is shown in FIG. 11). […]
(§4) Sedimentation velocity experiments were performed on a Beckman XLI/XLA analytical ultracentrifuge. […] Scans were recorded at 20° C. with a rotor speed of 35,000 rpm, and the signal was detected at 230 nm with a spacing of 0.006 in the continuous mode. Sedimentation profiles were analyzed by the program Sedfit (Schuck (2000) Biophys. J. 78:1606-19) to obtain the sedimentation coefficient distributions. The solvent density (1.006) and partial specific volume (0.72) were calculated using the program Sednterp (Laue et al. (1992) Analytical Ultracentrifugation in Biochemistry and Polymer Science (Harding, S. E., Towe, A. J. and Horton, J. C., eds.) pp. 90-125, Royal Society of Chemistry, Cambridge, U.K). […]

[4] = molecular target: T2, NgR1(310)-fc R279E (Homo sapiens, UniProt Q9BZR6, R279E); assay: Analytical ultracentrifugation, R279E mutant receptor; assay type: binding
T2 construct: made in house; host or cells: mammalian expression vector
T2 sequence (Q9BZR6 27-310 R279E): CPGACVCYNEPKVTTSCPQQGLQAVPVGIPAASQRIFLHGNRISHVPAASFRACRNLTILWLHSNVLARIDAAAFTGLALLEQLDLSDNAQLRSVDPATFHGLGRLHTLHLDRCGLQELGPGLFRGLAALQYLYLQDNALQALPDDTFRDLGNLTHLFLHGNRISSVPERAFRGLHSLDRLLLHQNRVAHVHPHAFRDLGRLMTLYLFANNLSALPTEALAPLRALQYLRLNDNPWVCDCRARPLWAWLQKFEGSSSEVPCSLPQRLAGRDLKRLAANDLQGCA
Text: as §3, §4

[5] = molecular target: T3, NgR1(310)-fc R151E (Homo sapiens, UniProt Q9BZR6, R151E); assay: Analytical ultracentrifugation, R151E mutant receptor; assay type: binding
T3 construct: made in house; host or cells: mammalian expression vector
T3 sequence (Q9BZR6 27-310 R151E): T2 sequence (Q9BZR6 27-310 R279E) with R125E, E253R
Text: as §3, §4

[6] = molecular target: T4, NgR1(310)-fc R199E (Homo sapiens, UniProt Q9BZR6, R199E); assay: Analytical ultracentrifugation, R199E mutant receptor; assay type: binding
T4 construct: made in house; host or cells: mammalian expression vector
T4 sequence (Q9BZR6 27-310 R199E): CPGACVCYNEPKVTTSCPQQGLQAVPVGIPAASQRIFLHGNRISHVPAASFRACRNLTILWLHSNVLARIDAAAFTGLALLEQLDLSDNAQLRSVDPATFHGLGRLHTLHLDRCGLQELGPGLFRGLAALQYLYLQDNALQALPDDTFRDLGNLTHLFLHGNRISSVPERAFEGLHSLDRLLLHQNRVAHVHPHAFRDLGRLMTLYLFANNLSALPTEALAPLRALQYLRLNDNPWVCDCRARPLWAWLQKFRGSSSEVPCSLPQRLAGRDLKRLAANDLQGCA
Text: as §3, §4

[7] = tested on: anti-hNgR AF 1208 antibody; assay: Analytical ultracentrifugation, specificity control; assay type: binding; conditions: 22 mM GT1b (data not shown)
Procedure: Sedimentation velocity experiments were performed on a Beckman XLI/XLA analytical ultracentrifuge. Wild type NgR(310)-fc (0.21 μM to 0.38 μM final) was added to ganglioside at concentrations increasing from 0 to 48 μM. Mutant protein used in the sedimentation velocity experiments corresponded to the column fraction of greatest purity based on SDS gel analysis. […] The solution (400 μL) was loaded into two-channel (1.2 cm path length) carbon-Epon centerpieces in an An-50-Ti rotor. Scans were recorded at 20° C. with a rotor speed of 35,000 rpm, and the signal was detected at 230 nm with a spacing of 0.006 in the continuous mode. Sedimentation profiles were analyzed by the program Sedfit (Schuck (2000) Biophys. J. 78:1606-19) to obtain the sedimentation coefficient distributions. The solvent density (1.006) and partial specific volume (0.72) were calculated using the program Sednterp (Laue et al. (1992) Analytical Ultracentrifugation in Biochemistry and Polymer Science (Harding, S. E., Towe, A. J. and Horton, J. C., eds.) pp. 90-125, Royal Society of Chemistry, Cambridge, U.K).
The peptide competition studies, together with the direct binding assays, have implicated the FRG motif within loop 2 as being important for MAG function. […]

[8] = tested on: cerebellar neurons; assay: Neurite outgrowth assay, inhibition by soluble MAG-Fc; assay type: cell-based, rat; conditions: MAG-Fc 20 μg/ml, increasing peptide concentrations (FIG. 6E)
Procedure: Cerebellar neurons isolated from postnatal day ⅔ rat pups were cultured over monolayers of 3T3 cells (Doherty et al. (1991) Neuron 6(2):247-58) essentially as previously described (Williams et al. (1994) Neuron 13(3):583-94). Monolayers were established by seeding ˜80,000 cells into individual chambers of an eight-chamber tissue culture slide coated with poly-L-lysine and fibronectin. The cell lines, and monolayers, were maintained in Dulbecco's modified Eagle's medium supplemented with 10% fetal calf serum (FCS). Cocultures were established by removing the media from the monolayers and seeding ˜6000 dissociated cerebellar neurons into each well in SATO medium (modified from Doherty et al. (1990) Neuron 5(2):209-19; Dulbecco's modified Eagle's medium supplemented with 2% FBS, 33% bovine albumin, 0.62 μg/ml progesterone, 161 μg/ml putrescine, 4 μg/ml L-thyroxine, 0.387 μg/ml selenium, and 3.37 μg/ml tri-iodo-thyronine (components from Sigma-Aldrich, St. Louis, Mo.)). Monolayers were established for 24 hours prior to addition of the neurons and the cultures were maintained for ˜23-27 hr. Following careful fixation with 4% paraformaldehyde, the neurons were stained with a GAP-43 antibody, and the mean length of the longest neurite per cell was measured for ˜120-150 neurons, again as previously described (Williams et al. (1994) supra). For neurite outgrowth on substrate-bound MAG, 96-well plates were coated with a thin layer of nitrocellulose (Bio-Rad, Hercules, Calif.) before incubating with 1 μg/ml of MAG(d1-5) (a chimeric construct containing domains 1-5 of the extracellular portion of MAG) at 4° C. overnight. Wells were subsequently coated with 17 μg/ml of poly-D-lysine (Sigma, St. Louis, Mo.), followed by incubation in Dulbecco's modified Eagle's medium containing 10% FCS. Cerebellar granule neurons were dissociated and seeded at a density of 10^4 cells per well. Cells were cultured for 18-20 h before being fixed with 4% paraformaldehyde and stained with a neuronal-specific anti-III-tubulin antibody, Tuj 1 (Covance, Emeryville, Calif.). The average of total neurite lengths from each neuron was measured automatically by the MetaXpress Neurite Outgrowth module (Molecular Devices, Sunnyvale, Calif.) from at least 200 neurons per well, in triplicate wells per experiment. Results were repeated independently more than three times.
Synthetic peptides were all obtained from a commercial supplier (Multiple Peptide Systems, San Diego, Calif.). All peptides were purified to the highest grade by reverse-phase HPLC and obtained at the highest level of purity (>97%). With all peptides, there was no indication of higher molecular weight species. Where peptide sequences are underlined, this denotes a peptide that has been cyclized via a disulfide bond between the given cysteine residues. All peptides were acetylated (e.g., denoted with “N-Ac-”) and amide blocked (e.g., denoted with “—NH2”). Recombinant MAG-Fc chimera was obtained from R&D Systems (Minneapolis, Minn.) and used at final concentrations ranging from 5-25 μg/ml. The monoclonal antibody to GT1b (clone GMR5) was obtained from Seikagaku America (Falmouth, Mass.) and was used at a final concentration of 20 μg/ml. All reagents were diluted into the coculture media and, in general, added to the cultures just prior to the plating of the neurons. GT1b and GM1 were obtained as gifts from Dr. Gino Toffano (Libero, Italy) and University of Milan, and asialo-GM1 was obtained from Sigma (St. Louis, Mo.). The recombinant NgR1(310)-fc and MAG(d1-5) chimeras were expressed and purified in-house. Pharmacological reagents were obtained from Calbiochem (La Jolla, Calif.) and/or Sigma. For reagents used in cell-surface NgR binding assays, please see Examples 1.5 and 1.7. For reagents used in the cell surface p75NTR-NgR-AP binding assay, please see Example 1.13.
In contrast, a soluble MAG-Fc chimera inhibits neurite outgrowth in a manner that depends upon both ganglioside and NgR function. […]

[9] = tested on: cerebellar granule neurons; assay: Neurite outgrowth on substrate-bound MAG; assay type: cell-based, rat; conditions: tested at up to 200 μg/ml (FIG. 6F)
Procedure: Cerebellar neurons isolated from postnatal day ⅔ rat pups were cultured over monolayers of 3T3 cells (Doherty et al. (1991) Neuron 6(2):247-58) essentially as previously described (Williams et al. (1994) Neuron 13(3):583-94). Monolayers were established by seeding ˜80,000 cells into individual chambers of an eight-chamber tissue culture slide coated with poly-L-lysine and fibronectin. The cell lines, and monolayers, were maintained in Dulbecco's modified Eagle's medium supplemented with 10% fetal calf serum (FCS). […] Following careful fixation with 4% paraformaldehyde, the neurons were stained with a GAP-43 antibody, and the mean length of the longest neurite per cell was measured for ˜120-150 neurons, again as previously described (Williams et al. (1994) supra). […] The average of total neurite lengths from each neuron was measured automatically by the MetaXpress Neurite Outgrowth module (Molecular Devices, Sunnyvale, Calif.) from at least 200 neurons per well, in triplicate wells per experiment. […]

neuraminidase: Vibrio cholera neuraminidase (Roche Applied Science)
inhibition of specific binding of MAG-AP to NgR1-expressing cells [1]: 55% | effect on Nogo66-AP binding to NgR1 [2]: completely unaffected

GT1b
interaction with NgR1(310)-fc (shift of sedimentation coefficient) [3]: additional peaks with higher sedimentation coefficients appear in a dose-dependent manner | reduction of GT1b/NgR1 complex formation ([4]; R279 mutated): ~50% | GT1b binding relative to wild type NgR ([4]; mutation of arginine 279, GT1b 22 μM, ratio of ~6.7 S and ~11 S peaks): approximately 56% | reduction of GT1b/NgR1 complex formation ([5]; R151 mutated): ~50% | GT1b binding relative to wild type ([5]; mutation of arginine 151, GT1b 22 μM): 49% | reduction of GT1b/NgR1 complex formation ([6]; R199 mutated): ~70% | GT1b binding relative to wild type / residual complex formation ([6]; mutation of arginine 199, GT1b 22 μM): ~30% and 33% | effect on sedimentation of control antibody [7]: No effect

N-Ac-c[sGrfkq]-NH2 (XGXXXX; not fully specified; cyclised or stapled) [hriNRL2]
efficacy in inhibiting the MAG response [8]: retain full efficacy | effect on suppressed neurite outgrowth on MAG substrate [9]: no significant effect
